Measurements: patent publication US9676771B2, “Compounds for inhibiting drug-resistant strains of HIV-1 integrase” (priority 2013, dated 2017)
Read-outs that look alike come from different tables or passages of the source.

Key:
[1] = system: HIV-1 constructs containing mutant IN H51Y; assay: Single-round HIV-1 infectivity assay, IN mutant H51Y; type: cell-based; conditions: Human immunodeficiency virus 1; Table 8; read-out: EC50 (nM, IN mutants) H51Y
Protocol: (§1) Single-Round HIV-1 Infectivity Assay.
(§2) Human embryonyl kidney cell culture cell line 293 was acquired from the American type Culture Collection (ATCC).
(§3) […]. […] The virus-containing supernatants were then harvested, clarified by low-speed centrifugation, filtrated, and diluted for preparation in infection assays. […] After compound incorporation and activation in the cell, 100 μL of virus-stock diluted to achieve a maximum luciferase signal between 0.2 and 1.5 RLUs was added to each well and further incubated at 37° C. for 48 hrs. […] Activity was normalized to infectivity in the absence of target compounds. KaleidaGraph (Synergy Software, Reading, Pa.) was used to perform regression analysis on the data. EC50 values were determined from the fit model.
(§4) pNLNgoMIVR^−ΔEnv.LUC has been described previously (Zhao et al. 2008). The integrase codon reading frame was removed from pNLNgoMIVR^−ΔEnv LUC (between KpnI and SalI sites) and placed between the KpnI and SalI sites of pBluescript II KS+. Using that construct as the wild-type template, we prepared the following HIV-1 Integrase-resistant mutants via the QuikChange II XL (Stratagene, La Jolla, Calif.) site-directed mutagenesis protocol: H51Y, T66I, E92Q, G118R, Y143R, Q148H, Q148K, N155H, R263K, G140S+Q148H, G140A+Q148K, E138K+Q148K, and H51Y+R263K. The following sense with cognate antisense (not shown) oligonucleotides (Integrated DNA Technologies, Coralville, Iowa) were used in the mutagenesis: H51Y, 5′-[…]-3; T66I, 5′-[…]-3′; E92Q, 5′-[…]-3′; G118R, 5′-[…]-3′; E138K, 5′-[…]-3; G140A, 5′-[…]-3; G140S, 5′-[…]-3′; Y143R, 5′-[…]-3′; Q148H, 5′-[…]-3′; Q148K, 5′-[…]-3; N155H, 5′-[…]-3′; R263K 5′-[…]-3′. The double mutation G140S+Q148H was constructed by using the previously generated Q148H mutant and the appropriate oligonucleotide for the 2nd mutation, G140S. The double mutation G140A+Q148K was made by using the Q148K mutant and the appropriate oligonucleotide for the 2nd mutation, G140A. The double mutation E138K+Q148K was made by using the Q148K mutant and the appropriate oligonucleotide for the 2nd mutation, E138K. The double mutation H51Y+R263K was constructed by using the previously generated H51Y mutant and the appropriate oligonucleotides for the 2nd mutation, R263K. The DNA sequence of each construct was verified independently by DNA sequence determination. The mutant integrase coding sequences from pBluescript II KS+ were then subcloned into pNLNgoMIVR^−ΔEnv LUC (between the KpnI and SalI sites) to produce the full-length mutant HIV-1 Integrase constructs. These DNA sequences were additionally checked independently by DNA sequence determination.

[2] = system: HIV-1 constructs containing mutant IN E92Q; assay: Single-round HIV-1 infectivity assay, IN mutant E92Q; type: cell-based; conditions: Human immunodeficiency virus 1; Table 8; read-out: EC50 (nM, IN mutants) E92Q
Protocol: as §1, §2, §3, §4

[3] = system: HIV-1 constructs containing mutant IN G118R; assay: microbe, parasite or virus in culture; type: cell-based; conditions: Human immunodeficiency virus 1
Protocol: as §1, §2, §3, §4

[4] = system: HIV-1 constructs containing mutant IN T66I; assay: Single-round HIV-1 infectivity assay, IN mutant T66I; type: cell-based; conditions: Human immunodeficiency virus 1; Table 8; read-out: EC50 (nM, IN mutants) T66I
Protocol: as §1, §2, §3, §4

[5] = system: HIV-1 constructs containing mutant IN H51Y/R263K; assay: Single-round HIV-1 infectivity assay, IN double mutant H51Y/R263K; type: cell-based; conditions: Human immunodeficiency virus 1; Table 8; read-out: EC50 (nM, IN mutants) H51Y/R263K
Protocol: as §1, §2, §3, §4

[6] = system: HIV-1 constructs containing mutant IN R263K; assay: Single-round HIV-1 infectivity assay, IN mutant R263K; type: cell-based; conditions: Human immunodeficiency virus 1
Protocol: as §1, §2, §3, §4

in vitro = type: cell-based, human; conditions: human, 50% reduction in the level of ATP in HOS cells
Method in brief: (§5)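 Cells exposed to compounds over a concentration range for 48 hrs at 37° C. Viability read as cellular ATP by luciferase (ATPlite) luminescence after lysis, normalised to untreated cells; CC50 derived by regression fit.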

[7] = system: HIV-1 constructs containing wild-type IN; assay: microbe, parasite or virus in culture; type: cell-based; conditions: for Si (selectivity index): ratio of CC50 to EC50
[8] = system: HIV-1 constructs containing mutant IN N155H; assay: microbe, parasite or virus in culture; type: cell-based; conditions: Human immunodeficiency virus 1
Method in brief: (§6)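 Single-round infectivity assay using luciferase-reporter pNLNgoMIVR−ΔEnv.LUC virus carrying site-directed integrase mutants, produced in 293 cells. Activity normalized to infectivity without compound; EC50 from regression fit.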

[9] = system: HIV-1 constructs containing mutant IN Y143R; assay: microbe, parasite or virus in culture; type: cell-based; conditions: Human immunodeficiency virus 1
Method in brief: as §6

[10] = system: HIV-1 constructs containing mutant IN G140S-Q148H; assay: microbe, parasite or virus in culture; type: cell-based; conditions: Human immunodeficiency virus 1
Method in brief: as §6

HIV-1 integrase = HIV-1 integrase (Human immunodeficiency virus type 1 group M subtype B, UniProt P12497); assay: biochemical; type: biochemical
Method in brief: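 Compounds or DMSO added to 20 nM DNA and 400 nM integrase in 50 mM MOPS pH 7.2, 7.5 mM MgCl2, 14 mM 2-mercaptoethanol; 2 h at 37° C, quenched with formamide/SDS loading buffer. Products resolved on gels, imaged and quantified by densitometry.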

[11] = system: human osteosarcoma (HOS) cells; assay: in vitro; type: cell-based; conditions: Table 3; 50% reduction in the level of ATP in HOS cells
Method in brief: as §5

HIV-1 WT IN = assay: High growth serum assays in cells (WT); type: cell-based
[12] = Table 8, read-out: EC50 (nM, IN mutants) G118R
[13] = Table 8, read-out: EC50 (nM, IN mutants) R263K
[14] = Human immunodeficiency virus 1, Table 8, WT IN, read-out: EC50 (nM, WT)
[15] = Table 8, read-out: EC50 (nM, IN mutants) N155H
[16] = Table 8, read-out: EC50 (nM, IN mutants) Y143R
[17] = Table 8, read-out: EC50 (nM, IN mutants) G140S/Q148H
[18] = Table 4, 3′-processing, read-out: IC50 (3^+-Processing)
[19] = Table 4, strand transfer, read-out: IC50 (Strand Transfer)
[20] = Table 6, read-out: EC50 (nM, IN Mutants) G118R
[21] = Table 6, read-out: EC50 (nM, IN Mutants) R263K
[22] = Human immunodeficiency virus 1, Table 3, WT IN, read-out: EC50 (nM, WT)
[23] = Table 3, read-out: EC50 (nM, IN Mutants) N155H
[24] = Table 3, read-out: EC50 (nM, IN Mutants) Y143R
[25] = Table 3, G140S-Q148H double mutant, read-out: EC50 (nM, IN Mutants) SH

COc1cc2c(cc1Cc1cccc(Cl)c1F)c(=O)c(C(=O)O)cn2[C@H](CO)C(C)C [EVG, elvitegravir, reference compound]
EC50 [1]: 4.5 nM | EC50 [2]: 154 nM | EC50 [3, 12]: 21 nM | EC50 [4]: 66.2 nM | EC50 [5]: 52.6 nM | EC50 [6, 13]: 10 nM | CC50 (in vitro; Table 8): > 250000 nM | EC50 [7, 14]: 6.4 ± 0.8 nM | EC50 [8, 15]: 90 nM | EC50 [9, 16]: 7.9 nM | EC50 [10, 17]: 5700 nM

Cc1nnc(C(=O)NC(C)(C)c2nc(C(=O)NCc3ccc(F)cc3)c(O)c(=O)n2C)o1 [RAL, raltegravir, reference compound]
EC50 [1]: 3.4 nM | EC50 [2]: 29.8 nM | EC50 [3, 12]: 35.5 nM | EC50 [4]: 2.8 nM | EC50 [5]: 6 ± 2.3 nM | EC50 [6, 13]: 5.7 nM | CC50 (in vitro; Table 2): > 100000 nM | CC50 (in vitro; Table 6): > 100000 nM | CC50 (in vitro; Table 8): > 250000 nM | EC50 ([7]; Human immunodeficiency virus 1, Table 6, WT IN, read-out: EC50 (nM, WT)): 4 ± 2 nM

O=C(NCc1ccc(F)cc1F)c1c(NCCO)c2cccnc2n(O)c1=O [XZ378, N-(2,4-difluorobenzyl)-1-hydroxy-4-((2-hydroxyethyl)amino)-2-oxo-1,2-dihydro-1,8-naphthyridine-3-carboxamide]
IC50 (HIV-1 integrase; [18]): 0.55 ± 0.07 µM | IC50 (HIV-1 integrase; [19]): 0.01 ± 0.009 µM | EC50 [3, 20]: 27.3 ± 1.4 nM | EC50 [6, 21]: 26 nM | CC50 (in vitro; Table 3): 23500 ± 3000 nM | CC50 (in vitro; Table 6): 23500 ± 3000 nM | EC50 [7, 22]: 5.2 ± 0.6 nM | Si (selectivity index) ([7]; Table 3): 4,519 | EC50 [8, 23]: 24.6 ± 3.8 nM | EC50 [9, 24]: 4.6 ± 1.8 nM | EC50 [10, 25]: 43.1 ± 15.3 nM

O=C(NCc1ccc(F)cc1F)c1c(NCCCCc2ccccc2)c2cccnc2n(O)c1=O [XZ383, N-(2,4-difluorobenzyl)-1-hydroxy-2-oxo-4-((4-phenylbutyl)amino)-1,2-dihydro-1,8-naphthyridine-3-carboxamide]
IC50 (HIV-1 integrase; [18]): 12.2 ± 2 µM | IC50 (HIV-1 integrase; [19]): 0.28 ± 0.11 µM | CC50 [11]: 102000 ± 8000 nM | EC50 [7, 22]: 49.9 ± 13 nM | Si (selectivity index) ([7]; Table 3): 2,040 | EC50 [8, 23]: 116 ± 21.9 nM | EC50 [9, 24]: 39.9 ± 14.7 nM | EC50 [10, 25]: 243 ± 38.7 nM

Nc1c(C(=O)NCc2ccc(F)cc2F)c(=O)n(O)c2ncccc12 [XZ384, 4-Amino-N-(2,4-difluorobenzyl)-1-hydroxy-2-oxo-1,2-dihydro-1,8-naphthyridine-3-carboxamide]
EC50 [1]: 1 nM | IC50 (HIV-1 integrase; [19]): 0.019 ± 0.002 µM | IC50 (HIV-1 integrase; Table 7, 3′-processing, read-out: IC50 (μM) 3′-P): 2.5 ± 0.3 µM | EC50 [2]: 3 nM | EC50 [3, 20]: 16.1 ± 4.6 nM | EC50 [3, 12]: 16.1 nM | EC50 [4]: 0.6 nM | EC50 [5]: 3.2 nM | EC50 [6, 21]: 6.4 ± 2.3 nM | EC50 [6, 13]: 6.4 nM | CC50 (in vitro; Table 3): > 250000 nM | CC50 (in vitro; Table 6): > 250000 nM | CC50 (in vitro; Table 8): > 250000 nM | EC50 (HIV-1 WT IN; Human immunodeficiency virus 1, read-out: EC50 (nM), Table 9, 10% FBS): 0.8 ± 0.3 nM | EC50 (HIV-1 WT IN; Human immunodeficiency virus 1, read-out: EC50 (nM), Table 9, 15% FBS): 0.5 ± 0.05 nM | EC50 ([7]; Human immunodeficiency virus 1, read-out: EC50 (nM), Table 9, WT, normal 5% serum): 1.1 ± 0.66 nM | EC50 [7, 22]: 1.1 ± 0.66 nM

CC(=O)OCCCCCc1cnc2c(c1)c(NCCO)c(C(=O)NCc1ccc(F)cc1F)c(=O)n2O [XZ439, 5-(6-((2,4-Difluorobenzyl)carbamoyl)-8-hydroxy-5-((2-hydroxyethyl)amino)-7-oxo-7,8-dihydro-1,8-naphthyridin-3-yl)pentyl acetate]
EC50 [1]: 7.4 nM | EC50 [2]: 3.8 nM | EC50 [3, 12]: 14.5 nM | EC50 [4]: 1.2 nM | EC50 [5]: 15.2 nM | EC50 [6, 13]: 3.6 nM | CC50 (in vitro; Table 8): > 250000 nM | EC50 [7, 14]: 5.3 nM | EC50 [8, 15]: 10.3 nM | EC50 [9, 16]: 4.1 ± 1 nM | EC50 [10, 17]: 5.3 nM

Nc1c(C(=O)NCc2ccc(F)cc2F)c(=O)n(O)c2ncc(CCS(=O)(=O)c3ccccc3)cc12 [XZ446, 4-Amino-N-(2,4-difluorobenzyl)-1-hydroxy-2-oxo-6-(2-(phenylsulfonyl)ethyl)-1,2-dihydro-1,8-naphthyridine-3-carboxamide]
IC50 (HIV-1 integrase; Table 10, strand transfer, read-out: IC50 (nM, ST)): 0.0037 ± 0.0013 µM | EC50 [2]: 1.2 nM | EC50 [3, 12]: 11.4 nM | EC50 [6, 13]: 5.3 nM | CC50 (in vitro; Table 8): > 250000 nM | EC50 [7, 14]: 2 ± 0.1 nM | EC50 [8, 15]: 2.1 nM | EC50 [9, 16]: 0.6 nM | EC50 [10, 17]: 5.2 nM
